Measurements: the NIST ThermoML archive (doi:10.1016/j.jct.2016.10.034)

Assay: xn = mol fraction of the nth substance listed
Conditions: 100 kPa, Liquid; for viscosity: Falling or rolling sphere viscometry; for mass density: Vibrating tube method

CC[N+]1(C)CCOCC1.O=C([O-])CO [N-ethyl-N-methylmorpholinium glycolate] + O
Conditions | mass density [kg/m3] | viscosity [mPa·s]
298.15 K, x1 = 0.0933 | 1128.6 | –
298.15 K, x1 = 0.1688 | 1170.3 | 21.4
298.15 K, x1 = 0.2209 | 1186.5 | 43.1
298.15 K, x1 = 0.288 | 1199.7 | 95.3
298.15 K, x1 = 0.3907 | 1211.3 | 359
298.15 K, x1 = 0.4809 | 1217.5 | 842
298.15 K, x1 = 0.5793 | 1221.9 | 1779
298.15 K, x1 = 0.6669 | 1224.6 | –
298.15 K, x1 = 0.7573 | 1226.9 | –
298.15 K, x1 = 0.8256 | 1228 | –
303.15 K, x1 = 0.0933 | 1125.6 | –
303.15 K, x1 = 0.1688 | 1167 | 17
303.15 K, x1 = 0.2209 | 1183.1 | 32.9
303.15 K, x1 = 0.288 | 1196.3 | 69.7
303.15 K, x1 = 0.3907 | 1207.9 | 224
303.15 K, x1 = 0.4809 | 1214.1 | 494
303.15 K, x1 = 0.5793 | 1218.5 | 1005
303.15 K, x1 = 0.6669 | 1221.2 | 1723
303.15 K, x1 = 0.7573 | 1223.6 | –
303.15 K, x1 = 0.8256 | 1224.8 | –
308.15 K, x1 = 0.0933 | 1122.6 | –
308.15 K, x1 = 0.1688 | 1163.7 | 13.9
308.15 K, x1 = 0.2209 | 1179.6 | 25.8
308.15 K, x1 = 0.288 | 1192.8 | 52.3
308.15 K, x1 = 0.3907 | 1204.5 | 158
308.15 K, x1 = 0.4809 | 1210.7 | 339
308.15 K, x1 = 0.5793 | 1215.1 | 678
308.15 K, x1 = 0.6669 | 1217.9 | 1151
308.15 K, x1 = 0.7573 | 1220.2 | 1866
308.15 K, x1 = 0.8256 | 1221.5 | –
313.15 K, x1 = 0.0933 | 1119.5 | –
313.15 K, x1 = 0.1688 | 1160.4 | 11.3
313.15 K, x1 = 0.2209 | 1176.2 | 20.1
313.15 K, x1 = 0.288 | 1189.4 | 40.5
313.15 K, x1 = 0.3907 | 1201.1 | 118
313.15 K, x1 = 0.4809 | 1207.3 | 250
313.15 K, x1 = 0.5793 | 1211.8 | 496
313.15 K, x1 = 0.6669 | 1214.6 | 838
313.15 K, x1 = 0.7573 | 1216.9 | 1354
313.15 K, x1 = 0.8256 | 1218.2 | 1882
318.15 K, x1 = 0.0933 | 1116.4 | –
318.15 K, x1 = 0.1688 | 1157 | 9.61
318.15 K, x1 = 0.2209 | 1172.8 | 16.8
318.15 K, x1 = 0.288 | 1186 | 32
318.15 K, x1 = 0.3907 | 1197.7 | 85.6
318.15 K, x1 = 0.4809 | 1204 | 174
318.15 K, x1 = 0.5793 | 1208.5 | 334
318.15 K, x1 = 0.6669 | 1211.2 | 555
318.15 K, x1 = 0.7573 | 1213.7 | 884
318.15 K, x1 = 0.8256 | 1214.9 | 1219
323.15 K, x1 = 0.0933 | 1113.2 | –
323.15 K, x1 = 0.1688 | 1153.6 | 8.15
323.15 K, x1 = 0.2209 | 1169.4 | 13.9
323.15 K, x1 = 0.288 | 1182.6 | 25.5
323.15 K, x1 = 0.3907 | 1194.3 | 65.4
323.15 K, x1 = 0.4809 | 1200.6 | 130
323.15 K, x1 = 0.5793 | 1205.2 | 246
323.15 K, x1 = 0.6669 | 1207.9 | 405
323.15 K, x1 = 0.7573 | 1210.3 | 642
323.15 K, x1 = 0.8256 | 1211.7 | 882
328.15 K, x1 = 0.0933 | 1110 | –
328.15 K, x1 = 0.1688 | 1150.2 | 6.97
328.15 K, x1 = 0.2209 | 1166 | 11.7
328.15 K, x1 = 0.288 | 1179.2 | 20.8
328.15 K, x1 = 0.3907 | 1191 | 54
328.15 K, x1 = 0.4809 | 1197.3 | 98.6
328.15 K, x1 = 0.5793 | 1201.9 | 179
328.15 K, x1 = 0.6669 | 1204.7 | 283
328.15 K, x1 = 0.7573 | 1207 | 435
328.15 K, x1 = 0.8256 | 1208.5 | 587
333.15 K, x1 = 0.0933 | 1106.8 | –
333.15 K, x1 = 0.1688 | 1146.8 | 6
333.15 K, x1 = 0.2209 | 1162.6 | 9.79
333.15 K, x1 = 0.288 | 1175.8 | 17.3
333.15 K, x1 = 0.3907 | 1187.6 | 43.4
333.15 K, x1 = 0.4809 | 1194 | 77.6
333.15 K, x1 = 0.5793 | 1198.6 | 138
333.15 K, x1 = 0.6669 | 1201.5 | 217
333.15 K, x1 = 0.7573 | 1203.8 | 329
333.15 K, x1 = 0.8256 | 1205.2 | 441
338.15 K, x1 = 0.0933 | 1103.5 | –
338.15 K, x1 = 0.1688 | 1143.4 | 5.2
338.15 K, x1 = 0.2209 | 1159.2 | 8.55
338.15 K, x1 = 0.288 | 1172.4 | 14.6
338.15 K, x1 = 0.3907 | 1184.3 | 32.4
338.15 K, x1 = 0.4809 | 1190.7 | 59
338.15 K, x1 = 0.5793 | 1195.4 | 105
338.15 K, x1 = 0.6669 | 1198.3 | 165
338.15 K, x1 = 0.7573 | 1200.8 | 253
338.15 K, x1 = 0.8256 | 1202.1 | 340
343.15 K, x1 = 0.0933 | 1100.2 | –
343.15 K, x1 = 0.1688 | 1140 | 4.55
343.15 K, x1 = 0.2209 | 1155.8 | 7.41
343.15 K, x1 = 0.288 | 1169 | 12.4
343.15 K, x1 = 0.3907 | 1181 | 28.9
343.15 K, x1 = 0.4809 | 1187.5 | 49.6
343.15 K, x1 = 0.5793 | 1192.2 | 85.3
343.15 K, x1 = 0.6669 | 1195.1 | 131
343.15 K, x1 = 0.7573 | 1197.6 | 195
343.15 K, x1 = 0.8256 | 1199 | 258
348.15 K, x1 = 0.0933 | 1096.8 | –
348.15 K, x1 = 0.1688 | 1136.6 | 4.01
348.15 K, x1 = 0.2209 | 1152.4 | 6.46
348.15 K, x1 = 0.288 | 1165.7 | 10.7
348.15 K, x1 = 0.3907 | 1177.7 | 24.2
348.15 K, x1 = 0.4809 | 1184.2 | 40.4
348.15 K, x1 = 0.5793 | 1189 | 67.9
348.15 K, x1 = 0.6669 | 1192 | 102
348.15 K, x1 = 0.7573 | 1194.5 | 150
348.15 K, x1 = 0.8256 | 1195.9 | 196
